# Assay results taken from BindingDB's records for doi:10.1021/jm058013g (Universidad San Pablo Ceu, 2005).
# pIC50: −log10 of the molar value.
# Target: Cyclin-dependent kinase 1/G2/mitotic-specific cyclin-B (Marthasterias glacialis, UniProt P15206+Q9DGD3)
# Test: Kinase Inhibition Assay
# Conditions: 30 °C
# Cyclin-dependent kinase 1/G2/mitotic-specific cyclin-B, sequence (Q9DGD3 whole entry): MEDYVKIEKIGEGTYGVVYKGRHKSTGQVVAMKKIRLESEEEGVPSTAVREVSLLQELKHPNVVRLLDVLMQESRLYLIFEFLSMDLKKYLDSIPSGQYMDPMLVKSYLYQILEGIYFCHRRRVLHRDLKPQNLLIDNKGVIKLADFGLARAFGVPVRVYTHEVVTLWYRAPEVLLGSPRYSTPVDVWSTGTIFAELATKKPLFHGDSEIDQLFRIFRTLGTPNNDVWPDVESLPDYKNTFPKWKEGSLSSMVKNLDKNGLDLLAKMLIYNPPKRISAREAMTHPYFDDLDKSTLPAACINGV
# Cyclin-dependent kinase 1/G2/mitotic-specific cyclin-B, sequence (P15206 whole entry): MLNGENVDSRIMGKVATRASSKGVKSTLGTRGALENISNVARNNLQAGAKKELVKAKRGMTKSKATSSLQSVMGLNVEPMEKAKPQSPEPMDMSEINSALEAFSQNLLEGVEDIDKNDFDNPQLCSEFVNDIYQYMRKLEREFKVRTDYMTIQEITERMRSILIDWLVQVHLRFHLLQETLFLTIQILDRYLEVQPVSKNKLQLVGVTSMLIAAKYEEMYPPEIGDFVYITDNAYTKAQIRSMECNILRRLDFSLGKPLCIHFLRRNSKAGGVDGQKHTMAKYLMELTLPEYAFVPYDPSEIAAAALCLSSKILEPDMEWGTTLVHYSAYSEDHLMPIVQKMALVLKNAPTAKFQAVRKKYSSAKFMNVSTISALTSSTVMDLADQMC
row,Compound,pIC50
1,"Oc1[nH]nc2nnc(-c3ccccc3)c(-c3ccccc3)c12 [4,5-diphenyl-1H-pyrazolo[3,4-c]pyridazin-3-ol]",< 4.30
2,"CC/N=C(\S)Nc1[nH]nc2nnc(-c3ccco3)cc12 [3-ethyl-1-[5-(furan-2-yl)-1H-pyrazolo[3,4-c]pyridazin-3-yl]thiourea]",< 4.30
3,"Nc1nn(CCOCCO)c2nnc(-c3ccccc3)c(-c3ccccc3)c12 [2-[2-(3-Amino-4,5-diphenyl-1H-pyrazolo[3,4-c]pyridazin-1-yl)ethoxy]ethanol]",< 4.30
4,"Nc1nn(Cc2ccccc2)c2nnc(-c3ccccc3)c(-c3ccccc3)c12 [3-Amino-1-benzyl-4,5-diphenyl-1H-pyrazolo[3,4-c]pyridazine]",< 4.30
5,"CC(=O)n1nc(N)c2c(-c3ccccc3)c(-c3ccccc3)nnc21 [1-{3-amino-4,5-diphenyl-1H-pyrazolo[3,4-c]pyridazin-1-yl}ethan-1-one]",< 4.30
6,"Nc1nn(COCCO)c2nnc(-c3ccccc3)c(-c3ccccc3)c12 [2-[(3-Amino-4,5-diphenyl-1H-pyrazolo[3,4-c]pyridazin-1-yl)methoxy]ethanol]",< 4.30
7,"CC(=O)Nc1n[nH]c2nnc(-c3ccccc3)c(-c3ccccc3)c12 [N-{4,5-diphenyl-1H-pyrazolo[3,4-c]pyridazin-3-yl}acetamide]",< 4.30
8,"CC(=O)Nc1nn(C(C)=O)c2nnc(-c3ccccc3)c(-c3ccccc3)c12 [3-Acetamido-1-acetyl-4,5-diphenyl-1H-pyrazolo[3,4-c]-pyridazine]",< 4.30

# Same assay, conditions: pH 7.2; 30 °C
row,Compound,pIC50
1,"Nc1n[nH]c2nnc3c4ccccc4c4ccccc4c3c12 [17,18,20,21-tetraazapentacyclo[12.7.0.0^{2,7}.0^{8,13}.0^{15,19}]henicosa-1(21),2,4,6,8,10,12,14,16,19-decaen-16-amine]",< 4.30
2,"Nc1n[nH]c2nnc(-c3ccc(C(F)(F)F)cc3)c(-c3ccc(C(F)(F)F)cc3)c12 [3-Amino-4,5-bis(p-trifluoromethylphenyl)-1H-pyrazolo-[3,4-c]pyridazine]",< 4.30
3,"Nc1n[nH]c2nnc(-c3ccccn3)c(-c3ccccn3)c12 [4,5-bis(pyridin-2-yl)-1H-pyrazolo[3,4-c]pyridazin-3-amine]",< 4.30
4,"Nc1n[nH]c2nnc(-c3ccc([N+](=O)[O-])cc3)c(-c3ccc([N+](=O)[O-])cc3)c12 [4,5-bis(4-nitrophenyl)-1H-pyrazolo[3,4-c]pyridazin-3-amine]",< 4.30
5,"Cc1n[nH]c2nnc(N)c-2c1-c1ccccc1 [5-methyl-4-phenyl-1H-pyrazolo[3,4-c]pyridazin-3-amine]",< 4.30
6,"Nc1n[nH]c2nncc(-c3ccccc3)c12 [4-phenyl-1H-pyrazolo[3,4-c]pyridazin-3-amine]",< 4.30
7,"Nc1ccc(-c2nnc3[nH]nc(N)c3c2-c2ccc(N)cc2)cc1 [3-Amino-4,5-bis(p-aminophenyl)-1H-pyrazolo[3,4-c]-pyridazine]",< 4.30
8,Nc1n[nH]c2nnc(-c3ccccc3)cc12 [Pyrazolopyridazine deriv. 1n],5.40
9,"CC(C)(C)c1ccc(-c2nnc3[nH]nc(N)c3c2-c2ccc(C(C)(C)C)cc2)cc1 [4,5-bis(4-tert-butylphenyl)-1H-pyrazolo[3,4-c]pyridazin-3-amine]",< 4.30
10,"Nc1n[nH]c2nnc(-c3ccc(-c4ccccc4)cc3)c(-c3ccc(-c4ccccc4)cc3)c12 [3-Amino-4,5-bis(4-biphenyl)-1H-pyrazolo[3,4-c]pyridazine]",< 4.30
11,"COc1ccc(-c2nnc3[nH]nc(N)c3c2-c2ccc(OC)cc2)cc1 [3-Amino-4,5-bis(p-methoxyphenyl)-1H-pyrazolo[3,4-c]-pyridazine]",4.82
12,"Cc1n[nH]c2nnc(N)c-2c1C [4,5-dimethyl-1H-pyrazolo[3,4-c]pyridazin-3-amine]",< 4.30
